Laboratory results reported in ChEMBL document CHEMBL4342489, “Structure-Activity Relationship Evaluation of Wasp Toxin β-PMTX Leads to Analogs with Superior Activity for Human Neuronal Sodium Channels” (ACS Med Chem Lett, 2020).
Positions of bridges follow the written chain, without caps; N, C: chain ends. Non-standard residues stand in square brackets, D forms with d. Residues, ends and D or L forms follow the SMILES beside them. Phe(4-Cl) = N[C@@H](Cc1ccc(Cl)cc1)C(=O)O; 2Nal = N[C@@H](Cc1ccc2ccccc2c1)C(=O)O

Tests used:
Format in all cases: cell-based
[1] = molecular target: Sodium channel protein type 1 subunit alpha (Homo sapiens) (UniProt P35498); assay: Activation of human Nav1.1 expressed in HEK293 cells assessed as ratio of compound activation AUC to baseline activation AUC at 0.12 uM at -120 mV holding potential by Qpatch assay
[2] = molecular target: Sodium channel protein type 1 subunit alpha (Homo sapiens) (UniProt P35498); assay: Activation of human Nav1.1 expressed in HEK293 cells assessed as ratio of compound activation AUC to baseline activation AUC at 0.37 uM at -120 mV holding potential by Qpatch assay
[3] = molecular target: Sodium channel protein type 1 subunit alpha (Homo sapiens) (UniProt P35498); assay: Activation of human Nav1.1 expressed in HEK293 cells assessed as ratio of compound activation AUC to baseline activation AUC at 1.11 uM at -120 mV holding potential by Qpatch assay
[4] = molecular target: Sodium channel protein type 1 subunit alpha (Homo sapiens) (UniProt P35498); assay: Activation of human Nav1.1 expressed in HEK293 cells assessed as ratio of compound activation AUC to baseline activation AUC at 3.3 uM at -120 mV holding potential by Qpatch assay
[5] = molecular target: Sodium channel protein type 2 subunit alpha (Homo sapiens) (UniProt Q99250); assay: Activation of human Nav1.2 expressed in CHOK1 cells assessed as ratio of compound activation AUC to baseline activation AUC at 3.3 uM at -120 mV holding potential by Qpatch assay
[6] = molecular target: Sodium channel protein type 3 subunit alpha (Homo sapiens) (UniProt Q9NY46); assay: Activation of human Nav1.3 expressed in CHOK1 cells assessed as ratio of compound activation AUC to baseline activation AUC at 3.3 uM at -120 mV holding potential by Qpatch assay
[7] = molecular target: Sodium channel protein type 4 subunit alpha (Homo sapiens) (UniProt P35499); assay: Activation of human Nav1.4 expressed in HEK293 cells assessed as ratio of compound activation AUC to baseline activation AUC at 3.3 uM at -120 mV holding potential by Qpatch assay
[8] = molecular target: Sodium channel protein type 5 subunit alpha (Homo sapiens, UniProt Q14524); assay: Activation of human Nav1.5 expressed in HEK293 cells assessed as ratio of compound activation AUC to baseline activation AUC at 3.3 uM at -120 mV holding potential by Qpatch assay; settings: hek293, 3.3 µM
Sodium channel protein type 5 subunit alpha, sequence (Q14524 whole entry): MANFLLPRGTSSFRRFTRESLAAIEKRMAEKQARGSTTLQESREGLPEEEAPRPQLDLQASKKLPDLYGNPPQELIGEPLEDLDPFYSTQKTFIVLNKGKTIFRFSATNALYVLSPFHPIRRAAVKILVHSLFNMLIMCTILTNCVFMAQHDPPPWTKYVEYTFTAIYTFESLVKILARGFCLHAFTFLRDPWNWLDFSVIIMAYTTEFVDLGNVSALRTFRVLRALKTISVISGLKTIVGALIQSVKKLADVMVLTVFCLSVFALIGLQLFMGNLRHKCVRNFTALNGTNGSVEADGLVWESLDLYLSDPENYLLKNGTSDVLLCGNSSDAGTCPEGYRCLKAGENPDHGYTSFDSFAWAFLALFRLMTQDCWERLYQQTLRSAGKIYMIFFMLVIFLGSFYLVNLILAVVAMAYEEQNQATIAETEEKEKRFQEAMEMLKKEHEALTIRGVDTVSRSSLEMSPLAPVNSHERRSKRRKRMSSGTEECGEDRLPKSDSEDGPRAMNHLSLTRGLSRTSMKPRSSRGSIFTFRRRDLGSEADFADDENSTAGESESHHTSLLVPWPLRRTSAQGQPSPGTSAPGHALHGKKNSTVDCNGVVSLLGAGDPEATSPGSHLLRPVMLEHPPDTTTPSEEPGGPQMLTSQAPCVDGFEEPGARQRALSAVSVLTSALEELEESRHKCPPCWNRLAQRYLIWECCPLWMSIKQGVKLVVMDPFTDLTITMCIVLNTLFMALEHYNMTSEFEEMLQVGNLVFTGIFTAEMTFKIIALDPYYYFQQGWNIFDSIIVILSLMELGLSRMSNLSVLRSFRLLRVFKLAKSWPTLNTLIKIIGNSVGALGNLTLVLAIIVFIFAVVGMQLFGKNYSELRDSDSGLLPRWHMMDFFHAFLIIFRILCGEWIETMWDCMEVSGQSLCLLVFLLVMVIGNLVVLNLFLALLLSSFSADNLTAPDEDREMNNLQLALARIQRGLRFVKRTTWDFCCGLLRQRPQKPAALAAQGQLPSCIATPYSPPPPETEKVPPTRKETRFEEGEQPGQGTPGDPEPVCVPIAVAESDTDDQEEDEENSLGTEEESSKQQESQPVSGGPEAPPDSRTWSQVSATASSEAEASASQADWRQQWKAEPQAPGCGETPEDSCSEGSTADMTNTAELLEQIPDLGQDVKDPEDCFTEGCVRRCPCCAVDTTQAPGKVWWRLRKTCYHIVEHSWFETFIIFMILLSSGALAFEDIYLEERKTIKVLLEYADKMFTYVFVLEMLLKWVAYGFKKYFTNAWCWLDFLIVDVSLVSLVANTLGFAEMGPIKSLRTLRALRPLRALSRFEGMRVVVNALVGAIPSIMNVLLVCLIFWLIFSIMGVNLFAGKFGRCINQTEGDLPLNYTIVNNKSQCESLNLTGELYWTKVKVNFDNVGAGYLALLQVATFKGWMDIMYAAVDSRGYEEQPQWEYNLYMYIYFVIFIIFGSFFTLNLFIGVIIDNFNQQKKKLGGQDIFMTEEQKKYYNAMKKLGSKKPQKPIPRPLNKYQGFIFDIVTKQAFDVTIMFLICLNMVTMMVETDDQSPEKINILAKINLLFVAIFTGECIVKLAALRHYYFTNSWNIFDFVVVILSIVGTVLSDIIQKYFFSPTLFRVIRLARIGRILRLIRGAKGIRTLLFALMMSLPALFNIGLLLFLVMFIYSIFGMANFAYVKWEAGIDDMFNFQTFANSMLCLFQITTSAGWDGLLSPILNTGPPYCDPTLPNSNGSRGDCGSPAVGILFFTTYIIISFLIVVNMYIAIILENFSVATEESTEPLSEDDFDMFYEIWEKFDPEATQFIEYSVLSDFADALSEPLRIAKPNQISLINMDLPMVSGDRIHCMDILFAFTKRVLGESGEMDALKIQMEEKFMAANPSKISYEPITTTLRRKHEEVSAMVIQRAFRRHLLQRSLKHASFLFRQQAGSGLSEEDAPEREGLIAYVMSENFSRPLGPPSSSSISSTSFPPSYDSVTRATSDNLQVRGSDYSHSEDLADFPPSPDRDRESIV

[9] = molecular target: Sodium channel protein type 8 subunit alpha (Homo sapiens) (UniProt Q9UQD0); assay: Activation of human Nav1.6 expressed in HEK293 cells assessed as ratio of compound activation AUC to baseline activation AUC at 3.3 uM at -120 mV holding potential by Qpatch assay
[10] = molecular target: Sodium channel protein type 9 subunit alpha (Homo sapiens) (UniProt Q15858); assay: Activation of human Nav1.7 expressed in HEK293 cells assessed as ratio of compound activation AUC to baseline activation AUC at 3.3 uM at -120 mV holding potential by Qpatch assay
Sodium channel protein type 9 subunit alpha (Homo sapiens), sequence (Q15858 whole entry, looked up): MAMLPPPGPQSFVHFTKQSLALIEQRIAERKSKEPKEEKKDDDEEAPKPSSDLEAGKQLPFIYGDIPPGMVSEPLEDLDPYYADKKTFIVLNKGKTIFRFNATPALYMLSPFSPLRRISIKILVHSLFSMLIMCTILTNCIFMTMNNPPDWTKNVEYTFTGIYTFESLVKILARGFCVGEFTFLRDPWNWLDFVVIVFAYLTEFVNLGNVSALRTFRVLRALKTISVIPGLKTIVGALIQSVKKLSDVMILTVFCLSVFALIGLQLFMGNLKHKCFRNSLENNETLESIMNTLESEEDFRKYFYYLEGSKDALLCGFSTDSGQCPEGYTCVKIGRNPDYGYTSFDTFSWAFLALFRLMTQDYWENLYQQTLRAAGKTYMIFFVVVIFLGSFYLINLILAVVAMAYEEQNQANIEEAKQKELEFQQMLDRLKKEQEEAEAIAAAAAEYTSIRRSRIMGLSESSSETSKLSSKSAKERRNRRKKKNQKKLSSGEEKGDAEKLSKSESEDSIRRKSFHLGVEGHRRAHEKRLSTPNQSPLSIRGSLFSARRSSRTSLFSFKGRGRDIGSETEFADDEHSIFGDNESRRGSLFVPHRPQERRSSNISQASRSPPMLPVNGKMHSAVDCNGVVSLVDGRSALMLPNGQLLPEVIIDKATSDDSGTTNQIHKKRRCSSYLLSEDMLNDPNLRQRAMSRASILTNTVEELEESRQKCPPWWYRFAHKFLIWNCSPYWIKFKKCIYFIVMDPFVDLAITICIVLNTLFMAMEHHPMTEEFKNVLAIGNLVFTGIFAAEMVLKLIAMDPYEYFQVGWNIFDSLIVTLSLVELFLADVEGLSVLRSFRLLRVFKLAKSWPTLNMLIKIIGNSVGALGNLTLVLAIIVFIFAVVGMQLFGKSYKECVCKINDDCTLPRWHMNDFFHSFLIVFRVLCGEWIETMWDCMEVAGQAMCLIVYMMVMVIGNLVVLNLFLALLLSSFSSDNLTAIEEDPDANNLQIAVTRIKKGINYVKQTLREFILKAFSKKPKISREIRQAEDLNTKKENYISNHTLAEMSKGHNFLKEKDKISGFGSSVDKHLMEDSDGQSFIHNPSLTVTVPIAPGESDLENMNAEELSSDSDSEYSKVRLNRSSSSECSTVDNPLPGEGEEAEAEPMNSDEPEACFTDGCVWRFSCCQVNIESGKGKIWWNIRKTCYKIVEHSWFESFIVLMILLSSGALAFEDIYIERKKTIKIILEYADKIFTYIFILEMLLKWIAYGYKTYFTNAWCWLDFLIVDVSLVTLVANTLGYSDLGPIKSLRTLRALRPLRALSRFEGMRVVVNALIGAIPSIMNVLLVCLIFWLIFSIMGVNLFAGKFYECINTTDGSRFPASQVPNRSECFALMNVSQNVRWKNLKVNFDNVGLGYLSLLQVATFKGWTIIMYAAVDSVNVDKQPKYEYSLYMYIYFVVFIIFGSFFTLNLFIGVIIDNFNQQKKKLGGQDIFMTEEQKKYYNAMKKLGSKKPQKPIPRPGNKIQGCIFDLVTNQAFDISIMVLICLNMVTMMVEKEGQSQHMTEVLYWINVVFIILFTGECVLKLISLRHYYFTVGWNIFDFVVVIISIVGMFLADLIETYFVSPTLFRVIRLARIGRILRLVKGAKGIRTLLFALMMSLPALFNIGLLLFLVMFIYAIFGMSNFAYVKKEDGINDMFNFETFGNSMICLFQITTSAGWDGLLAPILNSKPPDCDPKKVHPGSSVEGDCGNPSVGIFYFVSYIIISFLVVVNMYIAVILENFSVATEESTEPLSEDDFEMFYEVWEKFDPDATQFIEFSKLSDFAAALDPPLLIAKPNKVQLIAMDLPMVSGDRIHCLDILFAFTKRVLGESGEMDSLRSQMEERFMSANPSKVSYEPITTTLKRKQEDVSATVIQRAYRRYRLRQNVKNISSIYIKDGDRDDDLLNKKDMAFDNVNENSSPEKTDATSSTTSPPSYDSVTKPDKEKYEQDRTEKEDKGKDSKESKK

Row | Structure (SMILES) | Ratio AUC [1] | Ratio AUC [2] | Ratio AUC [3] | Ratio AUC [4] | Ratio AUC [5] | Ratio AUC [6] | Ratio AUC [7] | Ratio AUC [8] | Ratio AUC [9] | Ratio AUC [10]
1 | CC[C@H](C)[C@H](NC(=O)[C@@H](N)CCCNC(=N)N)C(=O)N[C@@H](CCCCN)C(=O)N[C@H](C(=O)N1CCC[C@@H]1C(=O)N[C@@H](CC(C)C)C(=O)N[C@@H](Cc1ccccc1)C(=O)N[C@@H](CC(=O)O)C(=O)N[C@@H](CCC(N)=O)C(=O)N[C@@H](CC(C)C)C(=O)N[C@@H](CO)C(=O)N[C@@H](CCCNC(=N)N)C(=O)N[C@@H](CC(C)C)C(N)=O)[C@@H](C)CC | 1 | 1.1 | 1.1 | 1.1 |  |  |  |  |  | 
2 | CC[C@H](C)[C@H](NC(=O)[C@H](CCCCN)NC(=O)[C@@H](NC(=O)[C@@H](N)CCCNC(=N)N)[C@@H](C)CC)C(=O)N[C@H](C)C(=O)N[C@@H](CC(C)C)C(=O)N[C@@H](Cc1ccccc1)C(=O)N[C@@H](CC(=O)O)C(=O)N[C@@H](CCC(N)=O)C(=O)N[C@@H](CC(C)C)C(=O)N[C@@H](CO)C(=O)N[C@@H](CCCNC(=N)N)C(=O)N[C@@H](CC(C)C)C(N)=O | 0.1 | 0.1 | 1 | 1.1 |  |  |  |  |  | 
3 | CC[C@H](C)[C@@H]1NC(=O)[C@H](CCCCN)NC(=O)[C@H]([C@@H](C)CC)NC(=O)[C@@H](N)CSSC[C@@H](C(=O)N[C@@H](CCC(N)=O)C(=O)N[C@@H](CC(C)C)C(=O)N[C@@H](CO)C(=O)N[C@@H](CCCNC(=N)N)C(=O)N[C@@H](CC(C)C)C(N)=O)NC(=O)[C@H](Cc2ccccc2)NC(=O)[C@H](CC(C)C)NC(=O)CNC1=O (H-CIKIGLFCQLSRL-NH2; disulfide 1-8) | 1 | 1.1 | 1 | 1.1 |  |  |  |  |  | 
4 | CC[C@H](C)[C@H](NC(=O)[C@H](CCCCN)NC(=O)[C@@H](NC(=O)[C@@H](N)CC(=O)O)[C@@H](C)CC)C(=O)NCC(=O)N[C@@H](CC(C)C)C(=O)N[C@@H](Cc1ccccc1)C(=O)N[C@@H](CCCNC(=N)N)C(=O)N[C@@H](CCC(N)=O)C(=O)N[C@@H](CC(C)C)C(=O)N[C@@H](CO)C(=O)N[C@@H](CCCNC(=N)N)C(=O)N[C@@H](CC(C)C)C(N)=O (H-DIKIGLFRQLSRL-NH2) | 1 | 1.1 | 1.1 | 1.1 |  |  |  |  |  | 
5 | CC[C@H](C)[C@@H]1NC(=O)[C@@H](NC(=O)[C@@H](NC(=O)[C@@H](N)CCCNC(=N)N)[C@@H](C)CC)CSSC[C@@H](C(=O)N[C@@H](CCC(N)=O)C(=O)N[C@@H](CC(C)C)C(=O)N[C@@H](CO)C(=O)N[C@@H](CCCNC(=N)N)C(=O)N[C@@H](CC(C)C)C(N)=O)NC(=O)[C@H](Cc2ccccc2)NC(=O)[C@H](CC(C)C)NC(=O)CNC1=O (H-RICIGLFCQLSRL-NH2; disulfide 3-8) | 1.1 | 0.9 | 0.9 | 1 |  |  |  |  |  | 
6 | CC[C@H](C)[C@H](NC(=O)[C@H](CC(=O)O)NC(=O)[C@@H](NC(=O)[C@@H](N)CCCNC(=N)N)[C@@H](C)CC)C(=O)NCC(=O)N[C@@H](CC(C)C)C(=O)N[C@@H](Cc1ccccc1)C(=O)N[C@@H](CCCCN)C(=O)N[C@@H](CCC(N)=O)C(=O)N[C@@H](CC(C)C)C(=O)N[C@@H](CO)C(=O)N[C@@H](CCCNC(=N)N)C(=O)N[C@@H](CC(C)C)C(N)=O (H-RIDIGLFKQLSRL-NH2) | 1.1 | 1.1 | 1.1 | 1.1 |  |  |  |  |  | 
7 | CC[C@H](C)[C@H](NC(=O)[C@H](CCCCN)NC(=O)[C@@H](NC(=O)[C@@H](N)CCCNC(=N)N)[C@@H](C)CC)C(=O)NCC(=O)N[C@@H](CC(C)C)C(=O)N[C@@H](Cc1c[nH]c2ccccc12)C(=O)N[C@@H](CC(=O)O)C(=O)N[C@@H](CCC(N)=O)C(=O)N[C@@H](CC(C)C)C(=O)N[C@@H](CO)C(=O)N[C@@H](CCCNC(=N)N)C(=O)N[C@@H](CC(C)C)C(N)=O (H-RIKIGLWDQLSRL-NH2) | 1 | 0.9 | 0.9 | 1 |  |  |  |  |  | 
8 | CC[C@H](C)[C@H](NC(=O)[C@H](CCCCN)NC(=O)[C@@H](NC(=O)[C@@H](N)CCCNC(=N)N)[C@@H](C)CC)C(=O)NCC(=O)N[C@@H](CC(C)C)C(=O)N[C@@H](Cc1ccc2ccccc2c1)C(=O)N[C@@H](CC(=O)O)C(=O)N[C@@H](CCC(N)=O)C(=O)N[C@@H](CC(C)C)C(=O)N[C@@H](CO)C(=O)N[C@@H](CCCNC(=N)N)C(=O)N[C@@H](CC(C)C)C(N)=O (H-RIKIGL[2Nal]DQLSRL-NH2) | 1.3 | 2.1 | 5 | 10.7 | 2.4 | 1.9 | 1.6 | 4 | 6.7 | 4
9 | CC[C@H](C)[C@H](NC(=O)[C@H](CCCNC(=N)N)NC(=O)[C@@H](NC(=O)[C@@H](N)CCCNC(=N)N)[C@@H](C)CC)C(=O)NCC(=O)N[C@@H](CC(C)C)C(=O)N[C@@H](Cc1ccccc1)C(=O)N[C@@H](CC(=O)O)C(=O)N[C@@H](CCC(N)=O)C(=O)N[C@@H](CC(C)C)C(=O)N[C@@H](Cc1ccccc1)C(=O)N[C@@H](CCCNC(=N)N)C(=O)N[C@@H](CC(C)C)C(N)=O (H-RIRIGLFDQLFRL-NH2) | 1 | 1.1 | 1.6 | 2.7 |  |  |  |  |  | 
10 | CC[C@H](C)[C@H](NC(=O)[C@H](CCCNC(=N)N)NC(=O)[C@@H](NC(=O)[C@@H](N)CCCNC(=N)N)[C@@H](C)CC)C(=O)NCC(=O)N[C@@H](CC(C)C)C(=O)N[C@@H](Cc1ccccc1)C(=O)N[C@@H](CC(=O)O)C(=O)N[C@@H](CCC(N)=O)C(=O)N[C@@H](CC(C)C)C(=O)N[C@@H](CC(C)C)C(=O)N[C@@H](CCCNC(=N)N)C(=O)N[C@@H](CC(C)C)C(N)=O (H-RIRIGLFDQLLRL-NH2) | 1.1 | 1.6 | 2.9 | 5.8 |  |  |  |  |  | 
11 | CC[C@H](C)[C@H](NC(=O)[C@H](CCCNC(=N)N)NC(=O)[C@@H](NC(=O)[C@@H](N)CCCNC(=N)N)[C@@H](C)CC)C(=O)NCC(=O)N[C@@H](CC(C)C)C(=O)N[C@@H](Cc1ccccc1)C(=O)N[C@@H](CC(=O)O)C(=O)N[C@@H](CCC(N)=O)C(=O)N[C@@H](CC(C)C)C(=O)N[C@@H](CO)C(=O)N[C@@H](CCCNC(=N)N)C(=O)N[C@@H](CC(C)C)C(N)=O (H-RIRIGLFDQLSRL-NH2) | 1 | 1.1 | 1.3 | 2 |  |  |  |  |  | 
12 | CC[C@H](C)[C@H](NC(=O)[C@H](CCCNC(=N)N)NC(=O)[C@@H](NC(=O)[C@@H](N)CCCNC(=N)N)[C@@H](C)CC)C(=O)NCC(=O)N[C@@H](CC(C)C)C(=O)N[C@@H](Cc1ccccc1)C(=O)N[C@@H](CC(=O)O)C(=O)N[C@@H](CCC(N)=O)C(=O)N[C@@H](CC(C)C)C(=O)N[C@@H](Cc1c[nH]c2ccccc12)C(=O)N[C@@H](CCCNC(=N)N)C(=O)N[C@@H](CC(C)C)C(N)=O (H-RIRIGLFDQLWRL-NH2) | 1.2 | 1.6 | 2.8 | 4.3 |  |  |  |  |  | 
13 | CC[C@H](C)[C@H](NC(=O)[C@H](CCCNC(=N)N)NC(=O)[C@@H](NC(=O)[C@@H](N)CCCNC(=N)N)[C@@H](C)CC)C(=O)NCC(=O)N[C@@H](CC(C)C)C(=O)N[C@@H](Cc1ccccc1)C(=O)N[C@@H](CC(=O)O)C(=O)N[C@@H](CCC(N)=O)C(=O)N[C@@H](CC(C)C)C(=O)N[C@@H](Cc1ccc(O)cc1)C(=O)N[C@@H](CCCNC(=N)N)C(=O)N[C@@H](CC(C)C)C(N)=O (H-RIRIGLFDQLYRL-NH2) | 1 | 1.1 | 1.5 | 2 |  |  |  |  |  | 
14 | CC[C@H](C)[C@H](NC(=O)[C@H](CCCNC(=N)N)NC(=O)[C@@H](NC(=O)[C@@H](N)CCCNC(=N)N)[C@@H](C)CC)C(=O)NCC(=O)N[C@@H](CC(C)C)C(=O)N[C@@H](Cc1ccccc1)C(=O)N[C@@H](CC(=O)O)C(=O)N[C@@H](CCC(N)=O)C(=O)N[C@@H](CC(C)C)C(=O)N[C@@H](Cc1ccc(Cl)cc1)C(=O)N[C@@H](CCCNC(=N)N)C(=O)N[C@@H](CC(C)C)C(N)=O (H-RIRIGLFDQL[Phe(4-Cl)]RL-NH2) | 1.1 | 1.2 | 1.8 | 3.5 |  |  |  |  |  | 
15 | CC[C@H](C)[C@H](NC(=O)[C@H](CCCCN)NC(=O)[C@H](CC(C)C)NC(=O)[C@@H](N)CCCNC(=N)N)C(=O)NCC(=O)N[C@@H](CC(C)C)C(=O)N[C@@H](Cc1ccccc1)C(=O)N[C@@H](CC(=O)O)C(=O)N[C@@H](CCC(N)=O)C(=O)N[C@@H](CC(C)C)C(=O)N[C@@H](CO)C(=O)N[C@@H](CCCNC(=N)N)C(=O)N[C@@H](CC(C)C)C(N)=O (H-RLKIGLFDQLSRL-NH2) | 1 | 1 | 1 | 1 |  |  |  |  |  | 
